Data from US12459891B2, “1-[1-(4-benzyloxy-3,5-difluoro-benzoyl)-4-fluoro-pyrrolidine-2-carbonyl]-pyrrolidine-2-carbonitrile” (ACCURE THERAPEUTICS, S.L., priority 2020, dated 2025).
Read-outs that look alike come from different tables or passages of the source.

Tests used:
[1] = In vivo brain exposure (plasma and brain AUC); details: male, mouse, mice, 5 mg/kg, read-out: % BBB (brain exposure, plasma and brain AUC ratio)
Procedure: For each compound, twenty-four adult male mice, aged 7-8 weeks on the day of experiment, were used for the study and were allocated randomly between the groups. The experiments were performed on 3 groups of animals as described in the table below:
After compound administration, terminal blood was performed at several time points after intraperitoneal (Comp. ex. 3) or oral administration (Ex. 1).
After transcardiac perfusion with phosphate buffered saline, brains were also collected. All the samples were stored at −80° C. until bioanalysis.
The plasma samples were thawed at room temperature (RT), and the samples were protein precipitated with a 2-fold volume of acetonitrile, containing 20 ng/mL phenacetin as an internal standard. The samples were mixed throughout, followed by centrifugation for 20 min at 2,200×g. The supernatants were diluted 1:1 with 150 mM phosphate buffered saline (pH 7.4) and pipetted onto UPLC 96-well plates to wait for the analysis. […]
Levels of the compounds of Comp. Ex. 3 and example 1 were quantified from mouse plasma and brain. Samples were analyzed using a fit-on-purpose bioanalytical method using a UPLC/QE-Orbitrap-Mass Spectroscopy.
The concentration (ng/mL) of the compounds along time was plotted and the area under the curve (AUC) in plasma and brain tissue was calculated using Graphpad Prism™ 5.0. The plasma to brain ratio was calculated as follows: […]

5-HT1A receptor = target: T1, 5-HT1A receptor (Homo sapiens, UniProt P08908); assay: Selectivity profile, radioligand binding (SafetyScreen44 panel); details: 100 μM compound (1% DMSO); read-out: % inhibition of control specific binding
T1 construct: purchased Cerep/Eurofins SafetyScreen44 panel
T1 sequence (P08908 1-422): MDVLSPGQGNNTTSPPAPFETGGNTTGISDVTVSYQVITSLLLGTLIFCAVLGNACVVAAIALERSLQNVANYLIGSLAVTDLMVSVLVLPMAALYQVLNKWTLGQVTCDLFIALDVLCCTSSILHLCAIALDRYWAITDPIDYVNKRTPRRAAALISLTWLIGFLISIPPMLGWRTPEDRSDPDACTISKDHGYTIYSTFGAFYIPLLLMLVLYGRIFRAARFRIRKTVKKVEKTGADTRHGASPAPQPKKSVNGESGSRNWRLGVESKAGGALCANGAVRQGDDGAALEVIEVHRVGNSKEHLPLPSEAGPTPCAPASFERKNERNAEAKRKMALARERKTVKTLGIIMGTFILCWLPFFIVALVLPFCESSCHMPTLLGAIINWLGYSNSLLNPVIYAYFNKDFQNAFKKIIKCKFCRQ
Procedure: The experiment was performed using the SafetyScreen44® panel from Cerep/Eurofins. Compounds were tested at a concentration 100 μM (in 1% DSMO).
Compound binding was calculated as a percentage inhibition of the binding of a radioactively labeled ligand specific for each target.
The results are expressed as a percent inhibition of control specific binding
[formula] obtained in the presence of tested compounds.
Results showing an inhibition higher than 50% are considered to represent significant effects of the test compounds.

Caco-2 cells = assay: Caco-2 permeability assay (apical to basal); type: in vitro ADME, human; details: 50 μM, 2 hours at 37° C.
Excerpt: Caco-2 cells are widely used as an in vitro model for prediciting human drug absorption. The Caco-2 cell line is derived from human colorectal carcinoma, and when cultured, the cells spontaneously differentiate into monolayers of polarized enterocytes.
Experiments were done using the CacoReay permeability kit (ReadyCell, Barcelona, Spain).
On the same week of the reception of the kit, the shipping medium of the cells was liquefied according to user's manual provided with the kit, after which the shipping medium was replaced with fresh Dulbecco's Modified Eagle's Medium (DMEM, low-glucose).
Three days later, equivalent to day 20 of cell culture, the quality of the barrier system and the presence of tight junctions between the cells was checked by measuring the trans endothelial electrical resistance (TEER) of the cell barrier. […]
For the transport experiments (apical to basal), the cells were incubated with the solutions containing the compounds for 2 hours at 37° C. Afterwards, the content of the compartments was recovered and analyzed by HPLC (Column C18 Sunfire 100 mm×4.6 mm, […], 100 Å, Waters; Flow rate 1 mL/min; Gradient 0-100% B in 8 min A=0.045% Trifluoracetic acid in H2O and B 0.036% Trifluoracetic acid in acetonitrile, detection at 220 nm). […]
In the Caco-2 permeability assay, the percentage of transport (T %) for the compounds was calculated according to the following equation: […]

Row | SMILES | Kp ([1]; IP) | inhibition at 100 µM (5-HT1A receptor) [%] | % T (percentage of transport), Caco-2 (Caco-2 cells) [%] | Kp ([1]; PO)
1 | COc1cc(C(=O)N2CC(F)(F)C[C@H]2C(=O)N2CCC[C@H]2C#N)cc(OC)c1OCc1ccccc1 [Comp Ex. 3, (S)-1-((2S)-1-(4-(benzyloxy)-3,5-dimethoxybenzoyl)-4,4-difluoropyrrolidine-2-carbonyl)pyrrolidine-2-carbonitrile] | 0.21 | 64.6 | 5.7 | 
2 | N#C[C@@H]1CCCN1C(=O)[C@@H]1C[C@@H](F)CN1C(=O)c1cc(F)c(OCc2ccccc2)c(F)c1 [Example 1, (S)-1-((2S,4R)-1-(4-(benzyloxy)-3,5-difluorobenzoyl)-4-fluoropyrrolidine-2-carbonyl)pyrrolidine-2-carbonitrile] |  | -6.3 | 45 | 0.253
